Experimental data taken from PubChem BioAssay (NCI).
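Five concentrations, 48 hours, 96-well plates. TGI is the concentration that stops growth completely.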

Experiments:
Assay in all cases: growth of human tumour cells (NCI), 48 h
CCRF-CEM leukemia = test system: CCRF-CEM leukemia
HCT-116 colon = test system: HCT-116 colon
CAKI-1 renal = test system: CAKI-1 renal
786-0 renal = test system: 786-0 renal
OVCAR-4 ovarian = test system: OVCAR-4 ovarian
RPMI-8226 leukemia = test system: RPMI-8226 leukemia
HL-60(TB) leukemia = test system: HL-60(TB) leukemia
SNB-75 CNS = test system: SNB-75 CNS
M14 melanoma = test system: M14 melanoma
SF-295 CNS = test system: SF-295 CNS
IGROV1 ovarian = test system: IGROV1 ovarian
SK-MEL-28 melanoma = test system: SK-MEL-28 melanoma
SW-620 colon = test system: SW-620 colon
SK-MEL-2 melanoma = test system: SK-MEL-2 melanoma
DLD-1 colon = test system: DLD-1 colon
UO-31 renal = test system: UO-31 renal
DMS 114 small cell lung = test system: DMS 114 small cell lung
NCI-H460 lung = test system: NCI-H460 lung
SF-539 CNS = test system: SF-539 CNS
HCT-15 colon = test system: HCT-15 colon
TK-10 renal = test system: TK-10 renal
MOLT-4 leukemia = test system: MOLT-4 leukemia
HT29 colon = test system: HT29 colon
SNB-19 CNS = test system: SNB-19 CNS
DMS 273 small cell lung = test system: DMS 273 small cell lung
MALME-3M melanoma = test system: MALME-3M melanoma
KM20L2 colon = test system: KM20L2 colon
ACHN renal = test system: ACHN renal
COLO 205 colon = test system: COLO 205 colon
HCC-2998 colon = test system: HCC-2998 colon
UACC-62 melanoma = test system: UACC-62 melanoma
LXFL 529 NSCLC = test system: LXFL 529 NSCLC
OVCAR-8 ovarian = test system: OVCAR-8 ovarian
U251 CNS = test system: U251 CNS
HOP-62 NSCLC = test system: HOP-62 NSCLC
NCI-H522 lung = test system: NCI-H522 lung
SF-268 CNS = test system: SF-268 CNS
NCI-H23 lung = test system: NCI-H23 lung
UACC-257 melanoma = test system: UACC-257 melanoma
KM12 colon = test system: KM12 colon
OVCAR-5 ovarian = test system: OVCAR-5 ovarian
A549 NSCLC = test system: A549 NSCLC
NCI-H226 lung = test system: NCI-H226 lung
HOP-92 NSCLC = test system: HOP-92 NSCLC
SR leukemia = test system: SR leukemia
SK-MEL-5 melanoma = test system: SK-MEL-5 melanoma
M19-MEL melanoma = test system: M19-MEL melanoma
OVCAR-3 ovarian = test system: OVCAR-3 ovarian
SK-OV-3 ovarian = test system: SK-OV-3 ovarian
LOX IMVI melanoma = test system: LOX IMVI melanoma
SN12C renal = test system: SN12C renal
EKVX NSCLC = test system: EKVX NSCLC
K-562 leukemia = test system: K-562 leukemia
RXF 393 renal = test system: RXF 393 renal
SNB-78 CNS = test system: SNB-78 CNS
T-47D breast = test system: T-47D breast
BT-549 breast = test system: BT-549 breast
MDA-MB-231 breast = test system: MDA-MB-231 breast
NCI/ADR-RES ovarian = test system: NCI/ADR-RES ovarian
MDA-N = test system: MDA-N
PC-3 prostate = test system: PC-3 prostate
DU-145 prostate = test system: DU-145 prostate
MCF7 breast = test system: MCF7 breast
MDA-MB-435 = test system: MDA-MB-435
A498 renal = test system: A498 renal
HS 578T breast = test system: HS 578T breast

`O=C(c1ccccc1)c1c(CC(O)c2ccncc2)n(C(=O)c2ccccc2)c2ccccc12` (stereo unspecified) gave a TGI (CCRF-CEM leukemia) of 61.9 µM, a TGI (HCT-116 colon) of 29.2 µM and a TGI (CAKI-1 renal) of 59.7 µM. For the same compound, the TGI (786-0 renal) was 39.1 µM, the TGI (OVCAR-4 ovarian) was 39.7 µM and the TGI (RPMI-8226 leukemia) was 46.1 µM. It also gave a TGI (HL-60(TB) leukemia) of 39.9 µM, a TGI (SNB-75 CNS) of 41.4 µM and a TGI (M14 melanoma) of 30.8 µM. It also gave a TGI (SF-295 CNS) of 26 µM, a TGI (IGROV1 ovarian) of 40.5 µM and a TGI (SK-MEL-28 melanoma) of 32.4 µM. It also gave a TGI (SW-620 colon) of 39.2 µM, a TGI (SK-MEL-2 melanoma) of 31 µM and a TGI (DLD-1 colon) greater than 100 µM. The TGI (UO-31 renal) was 31.7 µM, the TGI (DMS 114 small cell lung) was 40.2 µM and the TGI (NCI-H460 lung) was 49.9 µM. For the same compound, the TGI (SF-539 CNS) was 32.1 µM, the TGI (HCT-15 colon) was 38.7 µM and the TGI (TK-10 renal) was 75.2 µM. The TGI (MOLT-4 leukemia) was 42.1 µM, the TGI (HT29 colon) was 33.2 µM and the TGI (SNB-19 CNS) was 73.1 µM. The TGI (DMS 273 small cell lung) was 37.1 µM, the TGI (MALME-3M melanoma) was 34 µM and the TGI (KM20L2 colon) was 34 µM. It also gave a TGI (ACHN renal) of 67.5 µM, a TGI (COLO 205 colon) of 33.7 µM and a TGI (HCC-2998 colon) of 31.5 µM. For the same compound, the TGI (UACC-62 melanoma) was 31.5 µM, the TGI (LXFL 529 NSCLC) was 45.9 µM and the TGI (OVCAR-8 ovarian) was greater than 100 µM. It also gave a TGI (U251 CNS) of 31.6 µM, a TGI (HOP-62 NSCLC) of 31.6 µM and a TGI (NCI-H522 lung) of 29.7 µM. For the same compound, the TGI (SF-268 CNS) was 49.3 µM, the TGI (NCI-H23 lung) was 35 µM and the TGI (UACC-257 melanoma) was 32.9 µM. The TGI (KM12 colon) was 37.8 µM, the TGI (OVCAR-5 ovarian) was 34.5 µM and the TGI (A549 NSCLC) was 52.8 µM. The TGI (NCI-H226 lung) was 30.8 µM, the TGI (HOP-92 NSCLC) was 29.4 µM and the TGI (SR leukemia) was 39.5 µM. It also gave a TGI (SK-MEL-5 melanoma) of 30.1 µM, a TGI (M19-MEL melanoma) of 33 µM and a TGI (OVCAR-3 ovarian) of 28.9 µM.
For `Cc1ccccc1C(=O)C1CCCCC1O` (stereo unspecified), the TGI (HCT-116 colon) was greater than 100 µM, the TGI (CAKI-1 renal) was greater than 100 µM and the TGI (786-0 renal) was greater than 100 µM. The TGI (OVCAR-4 ovarian) was greater than 100 µM, the TGI (SK-OV-3 ovarian) was greater than 100 µM and the TGI (LOX IMVI melanoma) was greater than 100 µM. It also gave a TGI (SN12C renal) greater than 100 µM, a TGI (EKVX NSCLC) greater than 100 µM and a TGI (HL-60(TB) leukemia) greater than 100 µM. The TGI (SNB-75 CNS) was greater than 100 µM, the TGI (M14 melanoma) was greater than 100 µM and the TGI (IGROV1 ovarian) was greater than 100 µM. For the same compound, the TGI (K-562 leukemia) was greater than 100 µM, the TGI (SW-620 colon) was greater than 100 µM and the TGI (SK-MEL-2 melanoma) was greater than 100 µM. It also gave a TGI (UO-31 renal) greater than 100 µM, a TGI (DMS 114 small cell lung) greater than 100 µM and a TGI (HCT-15 colon) greater than 100 µM. The TGI (TK-10 renal) was greater than 100 µM, the TGI (MOLT-4 leukemia) was greater than 100 µM and the TGI (SNB-19 CNS) was greater than 100 µM. For the same compound, the TGI (MALME-3M melanoma) was greater than 100 µM, the TGI (KM20L2 colon) was greater than 100 µM and the TGI (ACHN renal) was greater than 100 µM. For the same compound, the TGI (HCC-2998 colon) was greater than 100 µM, the TGI (UACC-62 melanoma) was greater than 100 µM and the TGI (LXFL 529 NSCLC) was greater than 100 µM. For the same compound, the TGI (U251 CNS) was greater than 100 µM, the TGI (HOP-62 NSCLC) was greater than 100 µM and the TGI (SF-268 CNS) was greater than 100 µM. It also gave a TGI (NCI-H23 lung) greater than 100 µM, a TGI (KM12 colon) greater than 100 µM and a TGI (OVCAR-5 ovarian) greater than 100 µM. It also gave a TGI (A549 NSCLC) greater than 100 µM, a TGI (RXF 393 renal) greater than 100 µM and a TGI (NCI-H226 lung) greater than 100 µM. For the same compound, the TGI (SNB-78 CNS) was greater than 100 µM, the TGI (HOP-92 NSCLC) was greater than 100 µM and the TGI (SK-MEL-5 melanoma) was greater than 100 µM. It also gave a TGI (OVCAR-3 ovarian) greater than 100 µM.
`Clc1ccc(C2ON=C(c3ccccc3)N2C23CC4CC(CC(C4)C2)C3)cc1` (stereo unspecified) gave a TGI (T-47D breast) greater than 10 µM, a TGI (CCRF-CEM leukemia) greater than 10 µM and a TGI (HCT-116 colon) greater than 10 µM. For the same compound, the TGI (CAKI-1 renal) was greater than 10 µM, the TGI (786-0 renal) was greater than 10 µM and the TGI (OVCAR-4 ovarian) was greater than 10 µM. It also gave a TGI (SK-OV-3 ovarian) greater than 10 µM, a TGI (LOX IMVI melanoma) greater than 10 µM and a TGI (SN12C renal) greater than 10 µM. For the same compound, the TGI (RPMI-8226 leukemia) was greater than 10 µM, the TGI (EKVX NSCLC) was greater than 10 µM and the TGI (HL-60(TB) leukemia) was greater than 10 µM. For the same compound, the TGI (SNB-75 CNS) was greater than 10 µM, the TGI (M14 melanoma) was greater than 10 µM and the TGI (SF-295 CNS) was greater than 10 µM. It also gave a TGI (IGROV1 ovarian) greater than 10 µM, a TGI (K-562 leukemia) greater than 10 µM and a TGI (SK-MEL-28 melanoma) greater than 10 µM. For the same compound, the TGI (BT-549 breast) was greater than 10 µM, the TGI (MDA-MB-231 breast) was greater than 10 µM and the TGI (SW-620 colon) was greater than 10 µM. The TGI (NCI/ADR-RES ovarian) was greater than 10 µM, the TGI (SK-MEL-2 melanoma) was greater than 10 µM and the TGI (NCI-H460 lung) was greater than 10 µM. The TGI (SF-539 CNS) was greater than 10 µM, the TGI (HCT-15 colon) was greater than 10 µM and the TGI (TK-10 renal) was greater than 10 µM. The TGI (MOLT-4 leukemia) was greater than 10 µM, the TGI (HT29 colon) was greater than 10 µM and the TGI (SNB-19 CNS) was greater than 10 µM. The TGI (MALME-3M melanoma) was greater than 10 µM, the TGI (ACHN renal) was greater than 10 µM and the TGI (COLO 205 colon) was greater than 10 µM. For the same compound, the TGI (HCC-2998 colon) was greater than 10 µM, the TGI (UACC-62 melanoma) was greater than 10 µM and the TGI (OVCAR-8 ovarian) was greater than 10 µM. The TGI (U251 CNS) was greater than 10 µM, the TGI (HOP-62 NSCLC) was greater than 10 µM and the TGI (NCI-H522 lung) was greater than 10 µM. The TGI (SF-268 CNS) was greater than 10 µM, the TGI (NCI-H23 lung) was greater than 10 µM and the TGI (MDA-N) was greater than 10 µM. The TGI (PC-3 prostate) was greater than 10 µM, the TGI (UACC-257 melanoma) was greater than 10 µM and the TGI (KM12 colon) was greater than 10 µM. It also gave a TGI (OVCAR-5 ovarian) greater than 10 µM, a TGI (A549 NSCLC) greater than 10 µM and a TGI (RXF 393 renal) greater than 10 µM. For the same compound, the TGI (DU-145 prostate) was greater than 10 µM, the TGI (MCF7 breast) was greater than 10 µM and the TGI (MDA-MB-435) was greater than 10 µM. The TGI (NCI-H226 lung) was greater than 10 µM, the TGI (A498 renal) was greater than 10 µM and the TGI (HOP-92 NSCLC) was greater than 10 µM. The TGI (SR leukemia) was greater than 10 µM, the TGI (SK-MEL-5 melanoma) was greater than 10 µM and the TGI (OVCAR-3 ovarian) was greater than 10 µM. For the same compound, the TGI (HS 578T breast) was greater than 10 µM.
